Source: patent EP1126023A1, “METHOD FOR INDUCING CELLULAR IMMUNITY AND CELLS WITH INDUCED CELLULAR IMMUNITY” (MITSUBISHI CHEMICAL CORPORATION, priority 1998, dated 2000)

Tested on: CD8-positive HLA-A2402-restrictive CTL clones specific for the ErbB2 p63-71 peptide
Experiment: Stimulating activity of treated dendritic cells on proliferation of CTL clone
Type: cell-based, human
Settings: HLA-A2402 dendritic cells treated at protein concentration of 100 µg/ml for 3 hours or peptide-pulsed; compared to the non-treated dendritic cells; Fig. 3
Method: The dendritic cells, prepared from healthy human peripheral blood monocytes having HLA-A2402 as described above, were cultured with the CHP-ErbB2 suspension, the ErbB2 protein alone, the CHP-CAB suspension, or the CAB protein alone each at a protein concentration of 100 µ g/ml for 3 hours. The cells were washed and then further cultured for 15 hours.
By using these dendritic cells and the ErbB2 p63-71 peptide-pulsed dendritic cells derived from the same individual as stimulating cells, their abilities of stimulation were examined on the aforementioned CD8-positive HLA-A2402-restrictive CTL clones specific for the ErbB2 p63-71 peptide.

p63-71 peptide: peptide having the 63-71 amino acid sequence of HER2, positive control (TYLPTNASL)
stimulation and proliferation of the CTL clone: significantly stimulate the CTL clone and induce proliferation
